According to patent publication US5420128A, “Pyrimidine derivatives, method of manufacturing the same, and androgen inhibitor” (Otsuka Pharmaceutical Co., Ltd., priority 1990, dated 1995):

Target: T1, rat prostate androgen receptor (Rattus norvegicus, UniProt P15207)
T1 construct: the supernatant was obtained as cytoplasm fraction; from tissue; host or cells: cytosol (105000×g supernatant) of rat ventral prostate, 24 hours after castration
T1 sequence (P15207 1-902): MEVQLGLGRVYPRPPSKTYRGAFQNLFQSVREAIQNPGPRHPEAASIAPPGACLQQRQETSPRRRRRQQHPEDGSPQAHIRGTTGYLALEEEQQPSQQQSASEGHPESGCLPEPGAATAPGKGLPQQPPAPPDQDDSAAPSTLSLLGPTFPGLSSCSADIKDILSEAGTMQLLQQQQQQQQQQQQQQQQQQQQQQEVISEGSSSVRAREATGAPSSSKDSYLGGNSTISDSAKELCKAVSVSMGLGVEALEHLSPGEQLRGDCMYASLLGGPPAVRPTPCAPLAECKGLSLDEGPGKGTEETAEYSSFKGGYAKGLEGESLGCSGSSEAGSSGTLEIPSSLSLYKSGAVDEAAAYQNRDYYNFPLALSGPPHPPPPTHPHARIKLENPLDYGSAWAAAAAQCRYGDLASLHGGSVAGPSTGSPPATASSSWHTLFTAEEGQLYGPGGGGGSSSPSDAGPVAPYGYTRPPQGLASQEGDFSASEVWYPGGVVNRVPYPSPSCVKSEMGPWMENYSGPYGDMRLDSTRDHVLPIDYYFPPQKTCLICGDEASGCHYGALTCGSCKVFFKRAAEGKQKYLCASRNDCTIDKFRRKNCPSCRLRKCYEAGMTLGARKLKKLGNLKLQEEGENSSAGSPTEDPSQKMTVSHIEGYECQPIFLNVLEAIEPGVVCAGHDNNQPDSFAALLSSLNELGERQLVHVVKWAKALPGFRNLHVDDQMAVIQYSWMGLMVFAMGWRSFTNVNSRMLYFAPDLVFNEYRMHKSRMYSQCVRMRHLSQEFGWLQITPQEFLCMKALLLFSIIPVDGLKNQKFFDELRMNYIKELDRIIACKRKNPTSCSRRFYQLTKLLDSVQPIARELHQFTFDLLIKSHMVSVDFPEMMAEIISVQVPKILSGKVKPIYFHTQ
Test: inhibitory activity on binding of ^3 H-mibolerone on rat prostate androgen receptor
Details: ^3 H-mibolerone 1 nM, triamcinolone acetonide 5 μM, rat ventral prostate cytosol, 20 hours at 0° C.; read-out: Inhibitory activity on mibolerone specific binding [IC50 (M)]
Procedure: B. Measurement of inhibitory activity on binding of ^3 H-mibolerone on rat prostate androgen receptor
(1) Preparation of cytosol from rat prostate
The rat was sacrificed 24 hours after castration, and the ventral lobe of prostate was removed, and was gently homogenized, in ice-cooling water bath, at first by using Polytron and then using Potter type homogenizer, in three-fold amount of buffer solution A (1.5 mM EDTA, 2 mM dithiothreitol, 10 mM molybdate sodium, 10 % by volume of glycerol, 10 mM NaF, 25 mM phosphate sodium, pH 7.2). The obtained homogenate was filtrated through double gauze, and centrifuged at 105000×g for 60 minutes at 4° C., and the supernatant was obtained as cytoplasm fraction.
(2) Measurement of specific binding of ^3 H-mibolerone on prostate cytoplasm androgen receptor
To the cytoplasm fraction obtained in (1), ^3 H-mibolerone (87.0 Ci/mmol) was added, so that a final concentration is adjusted to 1 nM, and at the same time, in order to inhibit binding of ^3 H-mibolerone to progestin receptor, triamsinolone acetonide was added to a final concentration of 5 μM, and the final volume was adjusted to 0.4 ml with buffer solution A, and the reaction mixture was incubated for 20 hours at 0° C. After incubation, 0.5 ml of 60% hydroxylapatite slurry (washed and equilibrate with a buffer solution B: 10 mM NaH2 P04, 20 mM tris-hydrochloric acid, pH 7.2) was added, and incubated for 10 minutes at 0° C., the solution was transferred onto a glass fiber filter, and washed five times with 5 ml portions of buffer solution B containing 0.1% (weight/volume) of Triton X-100, to remove free ^3 H-mibolerone. This glass fiber was transferred into vial, and 10 ml of aquasol-2 was added, and the radioactivity was measured, and the total binding amount of ^3 H-mibolerone on prostate cytoplasm androgen receptor was determined.
The nonspecific binding amount was determined similarly by adding an unlabeled 5α-DHT in the reaction solution to a final concentration of 1 μM. The difference between the total binding amount and nonspecific binding amount was determined as the specific binding amount on the androgen receptor.
(3) Inhibitory activity of sample compounds on ^3 H-mibolerone specific binding
The compounds obtained in the experiments were added simultaneously with ^3 H-mibolerone at different concentrations to incubate same as in (2), and the specific binding amount of 3H-mibolerone on androgen receptor was determined. Comparing this value with the value obtained in (2), the IC50 value of inhibitory activity of the compounds on ^3 H-mibolerone specific binding was determined.

SMILES	IC50 [M]
CC(C)(C)NC(=O)c1cnc2c(-c3ccc(Sc4ccccc4)cc3)cnn2c1O [Example 46, 7-Hydroxy-3-(4-phenylthiophenyl)-6-(N-t-butyl)carbamoylpyrazolo[1,5-a]pyrimidine]	1.7e-07
c1ccc(Sc2ccc(-c3cnn4cccnc34)cc2)cc1 [Example 49, 3-(4-phenylthiophenyl)pyrazolo[1,5-a]pyrimidine]	> 5e-06
Cc1ccc(-c2cnc3c(-c4ccc(Sc5ccccc5)cc4)cnn3c2O)cc1 [Example 51, 7-Hydroxy-6-(4-methylphenyl)-3-(4-phenylthiophenyl)pyrazolo[1,5-a]pyrimidin]	3.4e-07
COc1ccc(-c2cnc3c(-c4ccc(Sc5ccccc5)cc4)cnn3c2O)cc1 [Example 52, 7-Hydroxy-6-(4-methoxyphenyl)-3-(4-phenylthiophenyl)pyrazolo[1,5-a]pyrimidine]	2.3e-07
COc1ccccc1-c1cnc2c(-c3ccc(Sc4ccccc4)cc3)cnn2c1O [Example 53, 7-Hydroxy-6-(2-methoxyphenyl)-3-(4-phenylthiophenyl)pyrazolo[1,5-a]pyrimidine]	3e-07
COc1cccc(-c2cnc3c(-c4ccc(Sc5ccccc5)cc4)cnn3c2O)c1 [Example 54, 7-Hydroxy-6-(3-methoxyphenyl)-3-(4-phenylthiophenyl)pyrazolo[1,5-a]pyrimidine]	7.6e-07
CC(=O)OCCc1cnc2c(-c3ccc(Sc4ccccc4)cc3)cnn2c1O [Example 59, 6-(2-Acetoxyethyl)-7-hydroxy-3-(4-phenylthiophenyl)pyrazolo[1,5-a]pyrimidine]	1.65e-07
Oc1ccc(Cc2cnc3c(-c4ccc(Sc5ccccc5)cc4)cnn3c2O)cc1 [Example 63, 7-Hydroxy-6-(4-hydroxyphenylmethyl)-3-(4-phenylthiophenyl)pyrazolo[1,5-a]pyrimidine]	> 5e-06
Oc1ccccc1-c1cnc2c(-c3ccc(Sc4ccccc4)cc3)cnn2c1O [Example 64, 7-Hydroxy-6-(2-hydroxyphenyl)-3-(4-phenylthiophenyl)pyrazolo[1,5-a]pyrimidine]	7.4e-07
O=C(c1ccccc1)c1cnc2c(-c3ccc(Sc4ccccc4)cc3)cnn2c1O [Example 68, 7-Hydroxy-6-benzoyl-3-(4-phenylthiophenyl)pyrazolo[1,5-a]pyrimidine]	1.3e-06
O=C(c1cnc2c(-c3ccc(Sc4ccccc4)cc3)cnn2c1O)C(F)(F)F [Example 69, 7-Hydroxy-6-trifluoroacetyl-3-(4-phenylthiophenyl)pyrazolo[1,5-a]pyrimidine]	8.8e-07
Oc1c(C(O)c2ccccc2)cnc2c(-c3ccc(Sc4ccccc4)cc3)cnn12 (stereo not drawn) [Example 71, 7-Hydroxy-6-(α-hydroxybenzyl)-3-(4-phenylthiophenyl)pyrazolo[1,5-a]pyrimidine]	4.6e-07
COc1ccc(-c2cnc3c(-c4ccc(Sc5ccccc5)cc4)cnn3c2O)cc1Br [Example 73, 6-(3-bromo-4-methoxyphenyl)-7-hydroxy-3-(4-phenylthiophenyl)pyrazolo[1,5-a]pyrimidine]	> 5e-06

Now those with a lower IC50, led by results:

IC50 [M]	SMILES
1.6e-07	Oc1ccccc1Cc1cnc2c(-c3ccc(Sc4ccccc4)cc3)cnn2c1O [Example 61, 7-Hydroxy-6-(2-hydroxyphenylmethyl)-3-(4-phenylthiophenyl)pyrazolo[1,5-a]pyrimidine]
1.6e-07	Oc1ccc(-c2cnc3c(-c4ccc(Sc5ccccc5)cc4)cnn3c2O)cc1 [Example 66, 7-Hydroxy-6-(4-hydroxyphenyl)-3-(4-phenylthiophenyl)pyrazolo[1,5-a]pyrimidine]
1.6e-07	Oc1c(C(O)C(F)(F)F)cnc2c(-c3ccc(Sc4ccccc4)cc3)cnn12 (centres unmarked) [Example 72, 7-Hydroxy-6-(1-hydroxy-2,2,2-trifluoroethyl)-3-(4-phenylthiophenyl)pyrazolo[1,5-a]pyrimidine]
1.55e-07	CC(O)c1cnc2c(-c3ccc(Sc4ccccc4)cc3)cnn2c1O (centres unmarked) [Example 70, 7-Hydroxy-6-(1-hydroxyethyl)-3-(4-phenylthiophenyl)pyrazolo[1,5-a]pyrimidine]
1.45e-07	Oc1c(-c2ccccc2F)cnc2c(-c3ccc(Sc4ccccc4)cc3)cnn12 [Example 57, 7-Hydroxy-6-(2-fluorophenyl)-3-(4-phenylthiophenyl)pyrazolo[1,5-a]pyrimidine]
1.4e-07	Oc1cccc(-c2cnc3c(-c4ccc(Sc5ccccc5)cc4)cnn3c2O)c1 [Example 65, 7-Hydroxy-6-(3-hydroxyphenyl)-3-(4-phenylthiophenyl)pyrazolo[1,5-a]pyrimidine]
1.2e-07	Oc1c(-c2cccc(F)c2)cnc2c(-c3ccc(Sc4ccccc4)cc3)cnn12 [Example 56, 7-Hydroxy-6-(3-fluorophepyl)-3-(4-phenylthiophenyl)pyrazolo[1,5-a]pyrimidine]
1.2e-07	Oc1cccc(Cc2cnc3c(-c4ccc(Sc5ccccc5)cc4)cnn3c2O)c1 [Example 62, 7-Hydroxy-6-(3-hydroxyphenylmethyl)-3-(4-phenylthiophenyl)pyrazolo[1,5-a]pyrimidine]
6.6e-08	Oc1c(-c2ccc(F)cc2)cnc2c(-c3ccc(Sc4ccccc4)cc3)cnn12 [Example 55, 7-Hydroxy, 6-(4-fluorophenyl)-3-(4-phenylthiophenyl)pyrazolo[1,5-a]pyrimidine]
5e-08	N#Cc1cnc2c(-c3ccc(Sc4ccccc4)cc3)cnn2c1O [Example 47, 7-Hydroxy-6-cyano-3,(4-phenylthiophenyl)pyrazolo[1,5-a]pyrimidine]
3.9e-08	OCCc1cnc2c(-c3ccc(Sc4ccccc4)cc3)cnn2c1O [Example 60, 7-Hydroxy-6-(2-hydroxyethyl)-3-(4-phenylthiophenyl)pyrazolo[1,5-a]pyrimidine]
3.4e-08	CC(=O)c1cnc2c(-c3ccc(Sc4ccccc4)cc3)cnn2c1O [Example 67, 7-Hydroxy-6-acetyl-3-(4-phenylthiophenyl)pyrazolo[1,5-a]pyrimidine]
2.3e-08	Cc1cc(-c2cnn3c(O)ccnc23)ccc1Sc1ccccc1 [Example 76, 7-Hydroxy-3-(3-methyl-4-phenylthiophenyl)pyrazolo[1,5-a]pyrimidine]
